Earlier results, collected in publication PMC4412257, “2′,6′-Dimethylphenylalanine: A Useful Aromatic Amino Acid Surrogate for Tyr or Phe Residue in Opioid Peptides” (International Journal of Medicinal Chemistry, 2012).
No end group written: not given here.

Key:
guinea pig ileum (GPI) = tested on: guinea pig ileum (GPI); set-up: method as in PMID 16321540; settings: cited from earlier work; for IC50: DYN analogs, read-out: GPI assay IC50 ± SEM; for Ke value of receptor selective antagonist CTAP (μ) / Ke value of receptor selective antagonist nor-BNI (κ) / Ke value of receptor selective antagonist N,N(Me)2Dmt-Tic-OH (δ): GPI assay, antagonist against the peptide
Aminopeptidase M = tested on: Aminopeptidase M; set-up: method as in PMID 16321540; settings: determined by HPLC; cited from earlier work
human ORL1 receptor = target: human ORL1 receptor; set-up: method as in PMID 16321540; settings: read-out: IC50 ± SEM, ORL1 receptor, [3H]NOC; cell membrane expressing human ORL1 receptor in Hek-293 cells; cited from earlier work
[1] = set-up: method as in PMID 16321540; settings: determined by HPLC; cited from earlier work
δ-opioid receptor = settings: rat brain homogenate; read-out: IC50 ± SEM, opioid receptor, [3H]DT (δ); cited from earlier work
κ-opioid receptor = target: κ-opioid receptor; set-up: method as in PMID 16321540; settings: guinea pig brain homogenate; read-out: IC50 ± SEM, opioid receptor, [3H]U-69593 (κ); cited from earlier work
μ-opioid receptor = settings: rat brain homogenate; read-out: IC50 ± SEM, opioid receptor, [3H]DAMGO (μ); cited from earlier work

DYN(1-13)-NH2 (YGGFLRRIRPKLK-NH2; UniProt P01213 207-219, looked up, fragment) [parent peptide, dynorphin A (1-13) amide, reference compound]
IC50 (guinea pig ileum (GPI)): 3.14 ± 1.13 nM
Half-life time, Aminopeptidase M (Aminopeptidase M): 15.5 min
IC50 (human ORL1 receptor): 18.8 ± 3.01 nM
Half-life time, Rat brain homogenate [1]: 435 min

Met-enkephalin [reference compound]
Half-life time, Aminopeptidase M (Aminopeptidase M): <5 min
Half-life time, Rat brain homogenate [1]: 8.5 min

Phe-Gly-Gly-Phe-Thr-Gly-Ala-Arg-Lys-Ser-Ala-Arg-Lys-Leu-Ala-Asn-Gln [NOC, reference compound]
IC50 (δ-opioid receptor): > 10000 nM
IC50 (κ-opioid receptor): 643 ± 218 nM
IC50 (μ-opioid receptor): 1540 ± 601 nM

[Dmp^1,4]DYN(1-13)-NH2 [compound 28]
IC50 (guinea pig ileum (GPI)): 1340 ± 303 nM
Ke value of receptor selective antagonist CTAP (μ) (guinea pig ileum (GPI)): 595 nM
Ke value of receptor selective antagonist nor-BNI (κ) (guinea pig ileum (GPI)): 809 nM
IC50 (δ-opioid receptor): 415 ± 185 nM
IC50 (human ORL1 receptor): 51.5 ± 1.62 nM
IC50 (κ-opioid receptor): 5.45 ± 1.65 nM
Half-life time, Rat brain homogenate [1]: 770 min
IC50 (μ-opioid receptor): 251 ± 56.3 nM

[Dmp^1,4]NOC(1-13)-NH2 [compound 31]
IC50 (δ-opioid receptor): 3410 ± 990 nM
IC50 (human ORL1 receptor): 21.3 ± 3.2 nM
IC50 (κ-opioid receptor): 100 ± 29 nM
Half-life time, Rat brain homogenate [1]: 27.1 min
IC50 (μ-opioid receptor): 56.8 ± 12.3 nM

[Dmp^1]DYN(1-13)-NH2 [compound 27]
IC50 (guinea pig ileum (GPI)): 306 ± 68 nM
Ke value of receptor selective antagonist CTAP (μ) (guinea pig ileum (GPI)): 115 nM
Ke value of receptor selective antagonist N,N(Me)2Dmt-Tic-OH (δ) (guinea pig ileum (GPI)): >1000 nM
Ke value of receptor selective antagonist nor-BNI (κ) (guinea pig ileum (GPI)): 10 nM
IC50 (δ-opioid receptor): 10.1 ± 6.02 nM
Half-life time, Aminopeptidase M (Aminopeptidase M): >30 min
IC50 (human ORL1 receptor): 6.6 ± 0.952 nM
Half-life time, Rat brain homogenate [1]: 577 min
IC50 (μ-opioid receptor): 16.4 ± 2.35 nM

[Dmp^1]NOC(1-13)-NH2 [compound 30]
IC50 (δ-opioid receptor): 292 ± 61 nM
Half-life time, Aminopeptidase M (Aminopeptidase M): 28 min
IC50 (human ORL1 receptor): 0.814 ± 0.09 nM
IC50 (κ-opioid receptor): 38.8 ± 16.7 nM
Half-life time, Rat brain homogenate [1]: 60.3 min
IC50 (μ-opioid receptor): 25 ± 6.5 nM

[Dmp^4]DYN(1-13)-NH2 [compound 26]
IC50 (guinea pig ileum (GPI)): 32.2 ± 9.16 nM
Ke value of receptor selective antagonist CTAP (μ) (guinea pig ileum (GPI)): 108 nM
Ke value of receptor selective antagonist N,N(Me)2Dmt-Tic-OH (δ) (guinea pig ileum (GPI)): 198 nM
Ke value of receptor selective antagonist nor-BNI (κ) (guinea pig ileum (GPI)): 0.63 nM
IC50 (δ-opioid receptor): 931 ± 723 nM
IC50 (human ORL1 receptor): 188 ± 18.2 nM
IC50 (κ-opioid receptor): 0.044 ± 0.035 nM
Half-life time, Rat brain homogenate [1]: 315 min
IC50 (μ-opioid receptor): 22.4 ± 10.2 nM

[Dmp^4]NOC(1-13)-NH2 [compound 29]
IC50 (δ-opioid receptor): > 10000 nM
IC50 (human ORL1 receptor): 51.6 ± 12.9 nM
IC50 (κ-opioid receptor): 299 ± 63 nM
Half-life time, Rat brain homogenate [1]: 33.6 min
IC50 (μ-opioid receptor): 629 ± 433 nM
